These results are taken from US20140073637A1, “AMINO-SUBSTITUTED-ALKYLOXY-BENZO[E]PYRIDO[4,3-B]INDOLE DERIVATIVES AS NEW POTENT KINASE INHIBITORS” (INSTITUT CURIE, priority 2011, published 2014).

One assay concerns 121 kinases. In words: Kinase profiling on a set of 121 kinases. As to conditions: kinases presenting the highest inhibitions; lists not exhaustive. Format: biochemical. Here is the method: FIG. 1A: The potential inhibition of C14 was tested against 121 kinases, in vitro, at the concentration of 1 μM. The kinase activities, in the presence of C14, are represented, each kinase being represented by a vertical bar. Only 18 kinases have less than 30% activity in the presence of C14.
(§1) The specificity of C14 was tested, in vitro, against 121 kinases representative of the kinome. Assays run in duplicate, at the concentration of 1 μM, were performed by MRC (Dundee, UK). Results are represented in FIG. 1. The main targets are highlighted in FIG. 1B.
(§2) The profiling was performed at the MRC (Dundee University), in duplicate, on a set of 121 kinases. The panel is representative of the major different classes of kinases. Compounds were used at the concentration of 1 μM. In vitro, IC50 were determined on recombinant kinases by Reaction biology Corp (USA).

Assay [1] addresses T1, Aurora B (Homo sapiens, UniProt Q96GD4). The experiment in a line: Kinase profiling in vitro at 1 μM. It is filed as biochemical. As to conditions: compound at 1 μM, read-out: percentage of remaining activity of recombinant kinase. Here is the method: as §1
(§3) In addition, the percentage of remaining activity of recombinant kinases Aurora kinases A and B and Checkpoint kinases 1 and 2 at the concentration of 1 μM of C1, C2 and C14 have been determined.
as §2

The target in the next assay is T2, CHK1 (Homo sapiens, UniProt O14757).
T2 sequence (O14757 1-476): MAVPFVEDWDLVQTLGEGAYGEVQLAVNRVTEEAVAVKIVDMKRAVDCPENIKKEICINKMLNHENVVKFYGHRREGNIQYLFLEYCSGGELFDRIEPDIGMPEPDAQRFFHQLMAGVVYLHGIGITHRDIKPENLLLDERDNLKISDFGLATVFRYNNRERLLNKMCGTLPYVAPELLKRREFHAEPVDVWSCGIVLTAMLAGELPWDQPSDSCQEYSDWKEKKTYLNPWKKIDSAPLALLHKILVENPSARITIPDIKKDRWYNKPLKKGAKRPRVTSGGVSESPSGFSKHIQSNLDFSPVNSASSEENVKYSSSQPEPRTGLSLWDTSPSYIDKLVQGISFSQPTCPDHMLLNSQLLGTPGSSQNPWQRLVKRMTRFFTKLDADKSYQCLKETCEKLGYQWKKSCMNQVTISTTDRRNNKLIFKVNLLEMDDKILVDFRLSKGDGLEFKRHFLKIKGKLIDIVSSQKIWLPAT
The experiment in a line: Kinase profiling in vitro at 1 μM. Format: biochemical. As to conditions: Chk1; compound at 1 μM; read-out: percentage of remaining activity of recombinant kinase. On the procedure: as §1, §3, §2

Another assay concerns the target Chk2 (Homo sapiens, UniProt O96017). In words: Kinase profiling in vitro at 1 μM. Format: biochemical. As to conditions: compound at 1 μM, read-out: percentage of remaining activity of recombinant kinase. On the procedure: as §1, §3, §2
The subject of another assay is HeLa cells. As to conditions: previously reported in Hoang et al, 2009, indicated for comparison, read-out: IC50 (in nM), antiproliferative assay; cited from earlier work.
For assay [2], the target named is T1, Aurora B. The experiment in a line: Aurora B inhibition in cells: Histone H3 Ser10 phosphorylation by western blotting and immunofluorescence. On the set-up: endogenous in cells; host or cells: U2OS (human osteosarcoma); HeLa also used for the maleate salts. As to conditions: U2OS mitotic extracts; 1 μM overnight; western blotting (FIG. 3). It is filed as cell-based. On the procedure:
Actin is used as control of quantity. Cells were incubated overnight in the presence of either C1, or C2 or CH21 or C14 or DMSO(C: control). All compounds were tested at 1 μM. Proteins were detected by western blotting.
Cells were incubated with the different molecules and Aurora B inhibition is estimated by western blotting (WB) and immuno fluorescent experiments. Histone H3 phosphorylated on Ser10 is used as a marker of Aurora B kinase activity and actin as an internal control. Each WB signal is compared to the control in the absence of compound. The efficiency estimated by WB is indicated by +++: very efficient inhibition to −: no inhibition. Immunofluorescent labelling of a mitotic cell by Histone H3 illustrates Aurora B kinase activity. However immunofluorescence is less sensitive than WB. Active molecules are underlined by a square and the intensity of the line indicates the efficiency of inhibition.
FIG. 10A: Immunofluorescence with phospho-Ser10-Histone H3 antibodies. Either the percentage of positive phospho-Ser10-Histone H3 is indicated or a representative mitosis shown. […] Immunofluorescent assays were realized with a specific phospho-antibody and mitotic U2OS cells are recognized by their DNA content stained with Hoechst. On the right, a representative cell or the percentage of H3-S10-P labelled mitosis.
FIG. 10B: Immunoblotting analysis of histone H3 phosphorylation. U2OS cells were incubated overnight with Nocodazole (50 nM) in the presence of either DMSO (Co) or Compounds (1 μM). Cells were then collected and lyzed. Identical amounts of the lyzed cell samples were run on 18% acrylamide gel containing SDS.
FIGS. 11B and 11C: Immunoblotting analysis of histone H3 phosphorylation. U2OS and HeLa cells were incubated overnight with Nocodazole (50 nM) in the presence of either DMSO (Co) or Compounds (1 μM). Cells were then collected and lyzed. Identical amounts of the lyzed cell samples were run on 18% acrylamide gel containing SDS.
Cells were incubated with the different molecules and Aurora B inhibition is estimated by western blotting and immunofluorescent experiments. Histone H3 phosphorylated on Ser10 is used as a marker of Aurora B kinase activity and actin as an internal control. Results are represented in FIGS. 4 and 10 and Table 3.
Cells were treated by compounds, harvested and lyzed in 9M urea then supplemented with Laemmli sample buffer. Cell extracts were subjected to SDS-PAGE and transferred to nitrocellulose filter (GE Healthcare). After blocking with 5% non-fat milk in PBS for at least 1 hour, the membranes were incubated with the primary antibodies. The following antibodies were used: phospho-Histone H3 Ser10 (1:2000, Upstate Biotechnology), anti LAST1 (Cell signalling), anti Aurora B (epitomics) and anti alpha-tubulin (Sigma) Anti-rabbit horseradish peroxidase (1:5000, GE Healthcare) was used as secondary antibodies. Bands were visualized by ECL technique (Amersham Bioscience).
Cells were seeded on glass coverslips and treated by compounds (1 μM) overnight. After treatment, cells were fixed in 4% formaldhehyde at 37° C. for 15 minutes, then permeabilized for 5 minutes with Triton X-100 in PBS.

The next assay concerns the target T3, Aurora A (Homo sapiens, UniProt O14965).
T3 sequence (O14965 1-403): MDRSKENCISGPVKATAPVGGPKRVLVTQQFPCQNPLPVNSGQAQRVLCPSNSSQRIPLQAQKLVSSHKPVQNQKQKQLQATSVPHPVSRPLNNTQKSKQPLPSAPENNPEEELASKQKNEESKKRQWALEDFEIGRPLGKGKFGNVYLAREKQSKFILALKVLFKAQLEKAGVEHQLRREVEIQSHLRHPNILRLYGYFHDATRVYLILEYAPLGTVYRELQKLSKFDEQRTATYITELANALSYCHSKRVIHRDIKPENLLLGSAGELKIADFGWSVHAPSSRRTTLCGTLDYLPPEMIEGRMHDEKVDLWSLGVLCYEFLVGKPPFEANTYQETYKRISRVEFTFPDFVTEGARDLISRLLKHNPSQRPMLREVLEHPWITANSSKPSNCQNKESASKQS
In words: Kinase profiling in vitro at 1 μM. As to conditions: Aurora A; compound at 1 μM; read-out: percentage of remaining activity of recombinant kinase. Format: biochemical. Here is the method:
Assays were run in vitro against recombinant kinases. The activity is reported for each kinase, grey histograms for CH21, white for C14 and gradation grey for C1. […] Therefore, C1 and C14 affect differently the Aurora kinase family.
as §1, §3, §2

T1 sequence (Q96GD4 whole entry): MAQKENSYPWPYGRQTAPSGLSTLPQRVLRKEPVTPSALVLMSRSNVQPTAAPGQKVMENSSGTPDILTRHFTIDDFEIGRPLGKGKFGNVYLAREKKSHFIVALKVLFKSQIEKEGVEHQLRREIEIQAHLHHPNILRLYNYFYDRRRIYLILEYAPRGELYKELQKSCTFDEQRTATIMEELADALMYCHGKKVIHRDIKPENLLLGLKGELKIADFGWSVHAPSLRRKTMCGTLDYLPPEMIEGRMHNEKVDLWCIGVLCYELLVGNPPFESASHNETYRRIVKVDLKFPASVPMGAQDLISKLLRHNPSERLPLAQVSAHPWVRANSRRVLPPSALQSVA
Chain of Chk2 (O96017 whole entry, species assumed): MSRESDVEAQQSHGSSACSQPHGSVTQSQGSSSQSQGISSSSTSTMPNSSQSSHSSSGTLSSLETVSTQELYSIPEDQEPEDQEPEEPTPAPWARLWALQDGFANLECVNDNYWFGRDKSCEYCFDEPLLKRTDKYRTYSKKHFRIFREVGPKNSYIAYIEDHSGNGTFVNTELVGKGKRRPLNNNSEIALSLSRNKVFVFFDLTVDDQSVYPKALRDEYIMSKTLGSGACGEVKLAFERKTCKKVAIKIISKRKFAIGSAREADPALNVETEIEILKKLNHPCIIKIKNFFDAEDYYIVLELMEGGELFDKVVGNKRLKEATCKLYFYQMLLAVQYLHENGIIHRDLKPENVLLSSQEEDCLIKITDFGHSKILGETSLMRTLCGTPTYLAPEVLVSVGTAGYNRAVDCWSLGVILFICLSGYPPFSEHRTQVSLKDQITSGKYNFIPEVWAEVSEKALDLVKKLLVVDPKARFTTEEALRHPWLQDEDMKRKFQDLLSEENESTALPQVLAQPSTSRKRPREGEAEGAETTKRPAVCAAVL

A word on the remaining activity: it is what remains of the control signal, in per cent. The term IC50 denotes the concentration at which inhibition is half-maximal. Regarding `COc1ccc2c(ccc3[nH]c4c(C)c[nH]c(=O)c4c32)c1` [Compound C2, reference compound], the “Known Targets (%)” value with 121 kinases is “Aurora A Aurora B Chk1 Chk2 Flt3”. In addition, the remaining activity at 1 µM was 24% at Aurora B [1], 12% at CHK1, 3% on Chk2 and 11% on Aurora A. In the assay with HeLa cells, the IC50 is 1160 ± 150 nM. Moreover, the “Aurora B inhibition in cellulo (Histone H3 phosphorylation, in words)” value at Aurora B [2] is on record as “mild inhibitory activity”.
